From ChEMBL document CHEMBL1130898, “4-Alkylpiperidines related to SR-48968: potent antagonists of the neurokinin-2 (NK2) receptor” (Bioorg Med Chem Lett, 1998)

How the values were obtained:
Cavia porcellus [1] = assay: Compound was administered perorally and evaluated for oral activity in neurokinin A-induced guinea pig dyspnea model.; assay type: functional
Substance-K receptor = molecular target: T1, Substance-K receptor (Homo sapiens, UniProt P21452); assay: Displacement of [3H]- NKA from human NK-2 receptor expressed in MEL cells; assay type: cell-based
T1 sequence (P21452 whole entry): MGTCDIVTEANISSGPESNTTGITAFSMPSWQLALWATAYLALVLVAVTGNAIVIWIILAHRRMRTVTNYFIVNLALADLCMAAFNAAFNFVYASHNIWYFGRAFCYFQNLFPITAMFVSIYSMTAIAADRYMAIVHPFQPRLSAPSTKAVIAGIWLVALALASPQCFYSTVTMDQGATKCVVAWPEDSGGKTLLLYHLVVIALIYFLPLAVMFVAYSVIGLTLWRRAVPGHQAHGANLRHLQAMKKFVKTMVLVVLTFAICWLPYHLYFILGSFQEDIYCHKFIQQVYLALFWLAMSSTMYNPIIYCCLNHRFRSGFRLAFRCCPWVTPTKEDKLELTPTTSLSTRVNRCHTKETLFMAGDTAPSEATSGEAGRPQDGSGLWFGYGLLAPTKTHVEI

Cavia porcellus [2] = assay: Compound was administered intravenously and evaluated for activity against neurokinin A-induced guinea pig dyspnea model; assay type: functional; conditions: iv
[3] = molecular target: T2, Substance-K receptor (Cavia porcellus) (UniProt Q64077); assay: Inhibition of [beta-Ala]NKA(4-10)-induced contraction of isolated guinea pig trachea; assay type: functional, tissue-based
T2 sequence (whole entry): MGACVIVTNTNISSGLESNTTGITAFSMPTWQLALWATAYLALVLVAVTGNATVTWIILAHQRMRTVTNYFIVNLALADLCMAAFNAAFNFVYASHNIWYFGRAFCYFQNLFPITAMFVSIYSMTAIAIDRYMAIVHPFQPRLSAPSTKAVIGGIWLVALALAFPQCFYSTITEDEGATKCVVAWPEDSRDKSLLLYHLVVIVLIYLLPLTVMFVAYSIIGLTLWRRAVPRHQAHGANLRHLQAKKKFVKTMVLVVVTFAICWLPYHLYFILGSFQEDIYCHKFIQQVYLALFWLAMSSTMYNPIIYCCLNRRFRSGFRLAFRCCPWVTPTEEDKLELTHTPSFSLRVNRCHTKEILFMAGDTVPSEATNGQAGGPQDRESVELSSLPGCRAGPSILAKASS

Cavia porcellus [4] = assay: Compound was administered perorally (po) and evaluated for oral activity in neurokinin A-induced guinea pig dyspnea model at 5 umol/kg dose; assay type: functional
Cavia porcellus [5] = assay: Compound was administered perorally and evaluated for oral activity in neurokinin A-induced guinea pig dyspnea model at 5 umol/Kg dose; assay type: functional

| Structure (SMILES) | Ki (Substance-K receptor) [nM] | pKB [3] | ED50 (Cavia porcellus [1]) [µmol/kg] | ED50 (Cavia porcellus [2]) [µmol/kg] | inhibition in vivo at 5 µmol/kg (Cavia porcellus [4]) [%] | inhibition in vivo at 5 µmol/kg (Cavia porcellus [5]) [%] |
| --- | --- | --- | --- | --- | --- | --- |
| CCC(O)(CC)C1CCN(CC[C@H](CN(C)C(=O)c2ccccc2)c2ccc(Cl)c(Cl)c2)CC1 | 0.84 | 8.1 | 3.49 | 0.4 | – | – |
| CC/C(=N/O)C1CCN(CCC(CN(C)C(=O)c2ccccc2)c2ccc(Cl)c(Cl)c2)CC1 (stereo unspecified) | 2.1 | 8.8 | – | – | – | – |
| CC(=O)NCCC1CCN(CCC(CN(C)C(=O)c2ccccc2)c2ccc(Cl)c(Cl)c2)CC1 (stereo unspecified) | 66 | 7.9 | – | – | – | – |
| CN(CC(CCN1CCC(C(C)(C)O)CC1)c1ccc(Cl)c(Cl)c1)C(=O)c1ccccc1 (stereo unspecified) | 7.7 | 7.5 | – | – | – | – |
| CCC(O)(CC)C1CCN(CCC(CN(C)C(=O)c2ccccc2)c2ccc(Cl)c(Cl)c2)CC1 (stereo unspecified) | 3.5 | 8.8 | – | – | 63 | – |
| CN(CC(CCN1CCC(CO)CC1)c1ccc(Cl)c(Cl)c1)C(=O)c1ccccc1 (stereo unspecified) | 142 | 8 | – | – | – | 13 |
| CC(=O)NC1(c2ccccc2)CCN(CCC(CN(C)C(=O)c2ccccc2)c2ccc(Cl)c(Cl)c2)CC1 (stereo in doubt; 2) [listing 1 of 2 here] | – | 9.2 | – | – | – | – |
| CC(O)C1CCN(CCC(CN(C)C(=O)c2ccccc2)c2ccc(Cl)c(Cl)c2)CC1 (stereo unspecified) | 33.5 | 7.8 | – | – | – | – |
| CN(CC(CCN1CCC(CCO)CC1)c1ccc(Cl)c(Cl)c1)C(=O)c1ccccc1 (stereo unspecified) | 47 | 8.3 | – | – | – | 7 |

Continued, in another order:

| Ki (Substance-K receptor) [nM] | pKB [3] | Structure (SMILES) | ED50 (Cavia porcellus [1]) [µmol/kg] | ED50 (Cavia porcellus [2]) [µmol/kg] | inhibition in vivo at 5 µmol/kg (Cavia porcellus [4]) [%] | inhibition in vivo at 5 µmol/kg (Cavia porcellus [5]) [%] |
| --- | --- | --- | --- | --- | --- | --- |
| 0.6 | – | CC(=O)NC1(c2ccccc2)CCN(CCC(CN(C)C(=O)c2ccccc2)c2ccc(Cl)c(Cl)c2)CC1 (stereo in doubt; 1) [listing 1 of 2 here] | 1.97 | – | – | – |
| 9.9 | 7.5 | CCCC1CCN(CCC(CN(C)C(=O)c2ccccc2)c2ccc(Cl)c(Cl)c2)CC1 (stereo unspecified) | – | – | – | – |
| – | 7.8 | CC(=O)OCCC1CCN(CCC(CN(C)C(=O)c2ccccc2)c2ccc(Cl)c(Cl)c2)CC1 (stereo unspecified) | – | – | – | – |
| 3.7 | 7.5 | CCCC(O)C1CCN(CCC(CN(C)C(=O)c2ccccc2)c2ccc(Cl)c(Cl)c2)CC1 (stereo unspecified) | – | – | – | – |
| 9.2 | 8.6 | CCC(=O)C1CCN(CCC(CN(C)C(=O)c2ccccc2)c2ccc(Cl)c(Cl)c2)CC1 (stereo unspecified) | – | – | – | – |
| 2.7 | 9.1 | CCC(=NO)C1CCN(CCC(CN(C)C(=O)c2ccccc2)c2ccc(Cl)c(Cl)c2)CC1 (stereo unspecified) | – | – | – | – |
| 6.5 | 7.6 | CC/C(=N\OC)C1CCN(CCC(CN(C)C(=O)c2ccccc2)c2ccc(Cl)c(Cl)c2)CC1 (stereo unspecified) | – | – | – | – |
| – | 9.1 | CC(=O)NC1(c2ccccc2)CCN(CCC(CN(C)C(=O)c2ccccc2)c2ccc(Cl)c(Cl)c2)CC1 (stereo in doubt; 1) [listing 2 of 2 here] | – | – | – | – |
| 1.3 | 8.8 | CC/C(=N\O)C1CCN(CCC(CN(C)C(=O)c2ccccc2)c2ccc(Cl)c(Cl)c2)CC1 (stereo unspecified) | – | – | 20 | – |
| 13.1 | 7.9 | CCC(O)C1CCN(CCC(CN(C)C(=O)c2ccccc2)c2ccc(Cl)c(Cl)c2)CC1 (stereo unspecified) | – | – | – | – |
| 4.7 | 8.4 | CCCC(O)(CCC)C1CCN(CCC(CN(C)C(=O)c2ccccc2)c2ccc(Cl)c(Cl)c2)CC1 (stereo unspecified) | 1.4 | 0.54 | – | – |
| 1.75 | – | CC(=O)NC1(c2ccccc2)CCN(CCC(CN(C)C(=O)c2ccccc2)c2ccc(Cl)c(Cl)c2)CC1 (stereo in doubt; 2) [listing 2 of 2 here] | – | – | – | – |
